We go through 102 compounds from PubChem BioAssay AID2252 (Southern Research Specialized Biocontainment Screening …, 2010).

Structures are written as SMILES.

The assay has as its system THP-1 viability, CellTiter-Glo luminescence, 72 h. As to the kind of experiment: PubChem AID 2252.
Broadly, the EC50 is the concentration giving half of the maximal effect. On to `C#CCOCCOCCOCCNc1nc(N2CCN(C(=O)CCCCCCCCCCNC(=O)[C@H](CCCCN)n3cc(C)nn3)CC2)nc(N2CCN(C(=O)CCCCCCCCCCNC(=O)[C@H](CCCN=C(N)N)n3cc(C[C@@H](C)CC)nn3)CC2)n1`, for which the EC50 was 5.13 µM. The same measure for `Nc1nc2ccccc2n1CCOc1ccccc1Cl`: 16.6 µM; for `Cc1ccc2c(c1)c1c(n2CC(O)CN2CCC(C)CC2)CCCC1` (configuration not stated): 16 µM; for `Cc1cc(C)n(-c2nc(NCCN(C)C)c3c4c(sc3n2)CCCC4)n1`: 4.39 µM. The same measure for `CN1CCN(c2ccccc2NC(=O)c2cc3c(s2)-c2ccccc2OC3)CC1`: 9.73 µM.

For the compound `CN1CC=C(/C=C/c2ccc(-c3ccccc3)cc2)CC1`, the EC50 was 10.5 µM. Regarding `Cc1ccc(Cn2c(=N)n(CC(O)COc3ccccc3)c3ccccc32)cc1` (configuration not stated), the EC50 was 6.08 µM.

Consider `Cc1cc(=O)oc2ccc(OCC(=O)N3CCC(C)CC3)cc12`, for which the EC50 was less than 0.1 µM. The same measure for `CC(=O)CC1OC(=O)C(Br)=C1NCc1ccccc1` (configuration not stated): 9.9 µM. In the case of `CCn1cc(C(=O)O)c(=O)c2cc(F)c(N3CCN(C(=S)NC(=O)c4cccc(C)c4)CC3)cc21`, the EC50 was less than 0.1 µM. For `CC(C)NC(=O)Nc1ccc(Br)cc1Cl` the value was less than 0.1 µM. For `CCCCCCCCCCn1c2c(c(=N)c3c1CCC3)CCC2` the value was 0.21 µM; for `CCCCCCCCCCCCCCCC[n+]1ccc(C(N)=O)cc1`, 0.68 µM; for `Cc1ccc2nsnc2c1S(=O)(=O)NCc1ccc2c(c1)OCO2`, less than 0.1 µM. The same measure for `CCCCc1ccc2[nH]cc(CCN)c2c1`: 7.81 µM. Consider `O=C(CN1CC[n+]2c(-c3cccs3)csc21)c1ccc(-c2ccccc2)cc1`, for which the EC50 is 13 µM. As to `COc1cc(CNCCc2c[nH]c3ccccc23)ccc1OCc1ccc(F)cc1`, the EC50 is 6.34 µM. On to `C=C(C)COc1ccc2c(C)c(CCC(=O)NC3CC3)c(=O)oc2c1`, for which the EC50 is less than 0.1 µM. For `Cc1ccc(NC(=O)COc2ccccc2CNC(C)(C)CC(C)(C)C)cc1` the value was 9.23 µM. Regarding `O=C(O)CC/C(=C\c1ccccc1[N+](=O)[O-])c1nc2ccccc2s1`, the EC50 was less than 0.1 µM. For `O=C(NC(=C(Cl)Cl)S(=O)(=O)c1ccc(Cl)cc1)c1ccccc1` the value was 23.2 µM; for `Nc1ncn(C2O[C@H](CO)[C@@H](O)[C@H]2O)c(=O)n1` (some centres not stated), 14 µM; for `CCN(CC)c1cc(C)c2cc(NC(=O)c3ccccc3F)ccc2n1`, 8.98 µM. Turning to `Cc1cc(N/N=C/c2ccc(F)cc2)nc(NCc2ccccc2)n1`, the EC50 was 22.5 µM. In the case of `OC(CNCCc1ccc(Cl)cc1Cl)COc1ccccc1` (configuration not stated), the EC50 was 29.2 µM. `Cn1c(-c2ccc3c(c2)OCO3)cnc1NCc1ccc(Cl)cc1`: the EC50 was 28.8 µM. As to `N#C/C(N=Nc1ccccc1O)=N\Nc1ccccc1O`, the EC50 was 4.42 µM. The same measure for `CCCCc1ccc(NC2=NCCCS2)cc1`: 21.3 µM.

Consider `CCCSc1nc2cc(OC)c(OC)cc2c(=N)n1CCCN1CCOCC1`, for which the EC50 is 45.2 µM. The same measure for `O=C(Nc1nnc(-c2cccs2)o1)c1cccc(C(F)(F)F)c1`: 14.3 µM. With `COc1cccc(Nc2nc(NCCO)c3ccccc3n2)c1`, the EC50 was 2.26 µM. For `CN1CC(C(=O)c2ccc(Cl)cc2)C(c2ccc(Cl)cc2Cl)C1` (configuration not stated) the value was 27.5 µM; for `CN(C)CCCNC(=O)c1ccc(-c2nc(-c3ccc(Cl)cc3)cs2)cc1`, 3.96 µM; for `CCc1nc(N)nc(N)c1-c1ccc(Cl)cc1`, 10.5 µM. For `COCCCNC(=S)NNC(=O)c1ccccn1` the value was 38 µM; for `CCCCCCCCCCOC(=O)Cn1c(COc2cccc(OC)c2)[n+](C)c2ccccc21`, 2.38 µM.

Take `O=C(Oc1c(Cl)cc(Cl)c2cccnc12)c1ccco1`: the EC50 is 11.6 µM. Take `CCc1ccc(-c2nn(-c3ccccc3)cc2CSC(=N)N)cc1`: the EC50 is 5.18 µM. `Oc1[nH]c2ccccc2c1N=NC(=S)N1CCOCC1`: the EC50 was 2.48 µM. The same measure for `O=c1[nH][nH]c(-c2ccccc2O)c1C(C[N+](=O)[O-])c1ccc(Br)cc1` (configuration not stated): 21.1 µM; for `O=S1(=O)Nc2c(ccc3cccnc23)-c2ccccc21`: 1.2 µM. Take `CCOc1cccc(/C=N/NC(=O)c2cc(C3CC3)[nH]n2)c1O`: the EC50 is 5.46 µM.

`CCN1CCN(CCNC(=O)c2ccc3c(c2)N(Cc2ccc(F)cc2)C(=O)/C(=C/c2ccccc2)S3)CC1`: the EC50 is 9.43 µM. With `COc1ccc(NC2=NC3(CCCCC3)N=C(N)N2)cc1`, the EC50 was 27 µM. Turning to `Nc1ncn([C@@H]2O[C@H](CO)[C@@H](O)[C@H]2O)c(=O)n1`, the EC50 was 19.7 µM. The same measure for `Cc1ccc(-n2c(Cc3noc4ccccc34)n[nH]c2=S)cc1`: less than 0.1 µM; for `CCN(CC)CCn1c(NCc2cc(OC)ccc2OC)nc2ccccc21`: 42.7 µM. Consider `O=C(Cc1ccccc1)N/N=C/c1cc(Br)cc(Cl)c1O`, for which the 50% effective concentration (EC50) was 3.7 µM. `N#C/C(=N\Nc1ccc([N+](=O)[O-])cc1)C(N)=S`: the EC50 was 29 µM. Regarding `N#C/C(=C\c1ccc(O)c(O)c1)C(=O)c1ccc(O)c(O)c1`, the EC50 is 39.1 µM. In the case of `Cc1nc(N)nc(N)c1CCCc1ccc(Cl)c(Cl)c1`, the EC50 was 5.79 µM. `CN(C)c1ccc(O)c2c1CC1CC3[C@@H](N(C)C)C(=O)C(C(N)=O)=C(O)[C@]3(O)C(=O)C1=C2O` (some centres not stated): the EC50 was 30.3 µM. For `Oc1ccc(Cl)cc1Cc1cc(Cl)ccc1O`, the EC50 is 19.5 µM. As to `N=c1n(CCN2CCCCC2)c2ccccc2n1CC(O)COc1ccccc1` (configuration not stated), the 50% effective concentration (EC50) is 28.7 µM. For `CC(NCc1ccc(-c2ccccc2)cc1)C(O)c1ccccc1` (configuration not stated) the value was 5.49 µM; for `CCCOc1ccc(CSC2=NCCN2)cc1[N+](=O)[O-]`, 20.8 µM; for `CCN1c2ccccc2NC2N=C(OC)C(c3ccccc3)C21` (configuration not stated), 16.1 µM. For `CCOc1ccccc1-c1cc(-c2ccccc2)nc2c1c(=O)n(C)c(=O)n2C`, the EC50 was less than 0.1 µM. As for `CC(C)(c1ccccc1)c1ccc(OCCCN2CCNCC2)cc1`, the 50% effective concentration (EC50) is 15.3 µM. On to `O=C(N/N=C/c1ccccn1)c1cccs1`, for which the EC50 is 26.4 µM. The same measure for `COc1ccc(OCC(=O)Nc2ccc3c(c2)nc(CCN2CCC(C)CC2)n3C)cc1`: 35.1 µM; for `Oc1c(CN2CCN(c3ccccn3)CC2)cc(Cl)c2cccnc12`: 1.64 µM. For `OC(CNCc1ccco1)Cn1c2ccc(Br)cc2c2cc(Br)ccc21` (configuration not stated) the value was 9.67 µM.

Take `C[C@H]1O[C@@H](n2cc(F)c(=O)[nH]c2=O)[C@H](O)[C@@H]1O`: the EC50 was 26.7 µM.

Turning to `COc1cc(C(=O)O/N=C2\C=CC(=O)C(C)=C2)cc(OC)c1OC`, the EC50 is 7.36 µM. On to `CN(C)CCCN(C(=O)COc1ccccc1)c1nc2ccc(Cl)cc2s1`, for which the EC50 is 46.8 µM. With `CN(C)c1ccc(/C=C/c2ccc3ccccc3[n+]2C)cc1`, the EC50 is 0.71 µM. In the case of `COc1ccc2c(C(=O)CCl)c[nH]c2c1`, the concentration for a half-maximal effect (EC50) was 11.2 µM. For `COc1cccc(/C=N/NC(=O)CNC(=O)COc2cccc(C)c2)c1O`, the EC50 was 9.52 µM. For `COc1ccccc1C(=O)NNC1=C(C(=O)C(F)(F)F)CCC1` the value was 15.1 µM; for `O=C(C[n+]1cc(Br)cc2ccccc21)c1ccc(Cl)cc1`, 44 µM; for `CC12CN3CC(C)(CN(C1)C3c1ccc(Br)cc1O)C2` (configuration not stated), less than 0.1 µM.

`CCn1nnc(NC(=O)c2ccc([N+](=O)[O-])o2)n1`: the EC50 is 13.6 µM. Turning to `Cc1ccc(C(=O)N/C(=C\c2ccc(-c3ccc(Br)cc3)o2)C(=O)NCCCN(C)C)cc1`, the EC50 is 4.18 µM. The same measure for `O=[N+]([O-])c1cccnc1S(=O)(=O)c1ccccc1`: 1.77 µM; for `Oc1[nH]c2ccc(Br)cc2c1N=NC(=S)N1CCOCC1`: 1.82 µM. The same measure for `O=C1c2c(O)ccc(O)c2C(=O)c2c(NCCNCCO)ccc(NCCNCCO)c21`: less than 0.1 µM; for `Nc1nonc1C(=O)NCCN=Cc1cc(Cc2ccccc2)cc(Br)c1O`: 28 µM; for `O=C(C[n+]1cc(-c2ccc(Cl)c(Cl)c2)n2c1CCC2)N1c2ccccc2Sc2ccccc21`: 10.3 µM. With `CSc1ccc2c(c1)C(N1CCN(C)CC1)Cc1ccc(F)cc1S2` (configuration not stated), the EC50 was 5.63 µM.

As for `O=[N+]([O-])/C=C/c1cc2ccccc2[nH]1`, the 50% effective concentration (EC50) is 44.9 µM. The same measure for `O=C(CNC(=O)c1ccccc1)N/N=C/c1ccc([N+](=O)[O-])s1`: 16.9 µM; for `CCCCCCCSc1cc(OC)c(CCNC)cc1OC`: 10.2 µM; for `O=C(CN1C2=NCCCN2c2ccccc21)c1ccc(Br)s1`: 41.9 µM. `O=C(CCN1CCOCC1)N/N=C/c1cc(Br)cc(Br)c1O`: the EC50 is 24.8 µM.

In the case of `Cc1ccc(C)c(NC(=O)c2ccccc2O)c1`, the 50% effective concentration (EC50) was 35.1 µM. The same measure for `N#C/C(=C\c1ccc(O)c(O)c1)C(=O)NCc1ccccc1`: 27.1 µM; for `c1ccc(CNc2nc(N3CCN(Cc4ccccc4)CC3)nc3ccccc23)cc1`: 8.41 µM.

Turning to `Cc1[nH]c2ccccc2c1/C=N/Nc1nc2ccccc2[nH]1`, the EC50 was 1.52 µM.

As to `Cc1ccc(OCC(=O)N/N=C\c2c(C)[nH]n(-c3ccccc3)c2=O)c([N+](=O)[O-])c1`, the EC50 is 6.86 µM. For `C[C@H]1c2cccc(O)c2C(O)=C2C(=O)[C@]3(O)C(O)=C(C(N)=O)C(=O)[C@@H](N(C)C)C3[C@@H](O)C21` (some centres not stated) the value was 27.5 µM; for `COc1ccccc1N1CCN(Cc2ccc(O)c3ncccc23)CC1`, 2.61 µM.

As for `O=C(CSc1ccccn1)Nc1nonc1[N+](=O)[O-]`, the concentration for a half-maximal effect (EC50) was 6.9 µM.

As for `Oc1ccccc1N=Cc1c(O)ccc2oc3c(c12)CCCC3`, the EC50 is 45.8 µM. For `Cc1[nH]nc2c1C(C1CC=CCC1)C(C#N)=C(N)O2` (configuration not stated) the value was 13.9 µM; for `CN(C)CCCNC(=S)NCC(c1ccc(Cl)cc1Cl)c1c[nH]c2ccccc12` (configuration not stated), 3.66 µM. Turning to `Cc1ccccc1C(=O)NNC(=S)NC(=O)COc1ccccc1`, the EC50 was 48.1 µM. Regarding `CCOC(=O)N1CCN(C(=S)NC(=O)c2ccc(Br)cc2)CC1`, the EC50 was less than 0.1 µM. For `Cc1ccc2sc(N(CCCN(C)C)C(=O)c3ccc(Br)s3)nc2c1C` the value was 21.2 µM; for `O=[N+]([O-])c1ccc(O)c2ncccc12`, 5.99 µM. The same measure for `CC(=O)NC(c1cccs1)c1cc([N+](=O)[O-])c2cccnc2c1O` (configuration not stated): 10.5 µM; for `CCc1ccc(CNCc2ccc(OCC(O)CN(C)Cc3ccccc3)cc2)nc1` (configuration not stated): 23 µM.
